Results published in patent US20240158446A1, “CYCLIC COMPOUND HAVING SELECTIVE INHIBITORY ACTION ON KRAS OVER HRAS AND NRAS” (CHUGAI SEIYAKU KABUSHIKI KAISHA, priority 2021, published 2024).
Like-named read-outs stand apart in the source and are kept apart here.

Columns and labels:
[1] = molecular target: GDP-bound KRAS wild-type protein (Homo sapiens, UniProt P01116); assay: Binding to KRAS by surface plasmon resonance (SPR), Single Cycle Kinetics; details: GDP-bound KRAS wild-type protein, read-out: KRAS KD
[2] = molecular target: GDP-bound NRAS wild-type protein (Homo sapiens, UniProt P01111); assay: Binding to NRAS by surface plasmon resonance (SPR), Single Cycle Kinetics; details: SPR, GDP-bound NRAS wild-type protein vs GDP-bound KRAS wild-type protein
[3] = molecular target: GDP-bound HRAS wild-type protein (Homo sapiens, UniProt P01112); assay: Binding to HRAS by surface plasmon resonance (SPR), Single Cycle Kinetics; details: SPR, GDP-bound HRAS wild-type protein vs GDP-bound KRAS wild-type protein
[4] = SPR Single Cycle Kinetics, 1:1 binding model

GDP-bound NRAS wild-type protein, sequence (P01111 whole entry): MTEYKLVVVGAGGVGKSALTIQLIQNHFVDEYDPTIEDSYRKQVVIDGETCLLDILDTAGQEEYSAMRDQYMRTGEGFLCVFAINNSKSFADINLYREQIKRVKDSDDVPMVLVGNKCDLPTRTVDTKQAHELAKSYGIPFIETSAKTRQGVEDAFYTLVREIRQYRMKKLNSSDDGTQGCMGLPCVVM
GDP-bound HRAS wild-type protein, sequence (P01112 whole entry): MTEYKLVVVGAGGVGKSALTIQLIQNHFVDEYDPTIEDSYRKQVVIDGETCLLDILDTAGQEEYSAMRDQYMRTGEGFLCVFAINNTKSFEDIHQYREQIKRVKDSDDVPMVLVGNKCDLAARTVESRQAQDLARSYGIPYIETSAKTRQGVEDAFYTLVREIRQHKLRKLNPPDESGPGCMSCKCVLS
GDP-bound KRAS wild-type protein, sequence (P01116 whole entry): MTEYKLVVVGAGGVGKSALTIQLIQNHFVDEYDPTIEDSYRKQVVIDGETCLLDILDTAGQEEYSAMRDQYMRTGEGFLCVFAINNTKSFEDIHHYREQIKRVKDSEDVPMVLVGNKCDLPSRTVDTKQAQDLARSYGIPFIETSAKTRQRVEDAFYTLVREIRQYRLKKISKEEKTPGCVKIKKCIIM

SMILES | Kd [1, 4] [nM] | Kd ([1]; SPR, Single Cycle Kinetics) [nM] | NRAS/KRAS (ratio of KD value with respect to NRAS to KD value with respect to KRAS) [2] | HRAS/KRAS (ratio of KD value with respect to HRAS to KD value with respect to KRAS) [3] | NRAS/KRAS (ratio of KD value for NRAS to KD value for KRAS) [2] | HRAS/KRAS (ratio of KD value for HRAS to KD value for KRAS) [3]
CCO[C@@H]1C[C@H]2C(=O)NC3(CCC3)C(=O)N(C)[C@@H](C3CCCC3)C(=O)N(C)[C@H](C(=O)N3CCOCC3)CC(=O)N(C)[C@@H](CC(C)C)C(=O)N[C@@H](C3CC(F)(F)C3)C(=O)N(C)CC(=O)N(C)[C@H]3CCCCN(C3=O)[C@@H](Cc3ccc(C(F)(F)F)cc3)C(=O)N(C)CC(=O)N[C@@H](CCc3cc(F)c(C(F)(F)F)c(F)c3)C(=O)N2C1 [PP0807] | 0.059 |  | B (a compound having 3 or more and less than 10 is denoted as B) | B (a compound having 3 or more and less than 10 is denoted as B) |  | 
CC[C@H](C)[C@@H]1NC(=O)[C@H](CC(C)C)N(C)C(=O)C[C@@H](C(=O)N2CCOCC2)N(C)C(=O)[C@H](C2CCCC2)N(C)C(=O)C2(CCC2)NC(=O)[C@]2(C)CCCN2C(=O)[C@H](CCc2cc(F)c(C(F)(F)F)c(F)c2)NC(=O)CN(C)C(=O)[C@H](Cc2ccc(C(F)(F)F)cc2)N2CCCC[C@@H](C2=O)N(C)C(=O)CN(C)C1=O [PP0808] | 0.027 |  | B (a compound having 3 or more and less than 10 is denoted as B) | B (a compound having 3 or more and less than 10 is denoted as B) |  | 
CC[C@H](C)[C@@H]1NC(=O)[C@H](CC(C)C)N(C)C(=O)C[C@@H](C(=O)N2CCOCC2)N(C)C(=O)[C@H](C2CCCC2)N(C)C(=O)C2(CCC2)NC(=O)[C@@H]2C[C@@H](C(F)(F)F)CN2C(=O)[C@H](CCc2cc(F)c(C(F)(F)F)c(F)c2)NC(=O)CN(C)C(=O)[C@H](Cc2ccc(C(F)(F)F)cc2)N2CCCC[C@@H](C2=O)N(C)C(=O)CN(C)C1=O [PP0809] | 0.027 |  | B (a compound having 3 or more and less than 10 is denoted as B) | B (a compound having 3 or more and less than 10 is denoted as B) |  | 
CC[C@H](C)[C@@H]1NC(=O)[C@H](CC(C)C)N(C)C(=O)C[C@@H](C(=O)N2CCOCC2)N(C)C(=O)[C@H](C2CCCC2)N(C)C(=O)C2(CCC2)NC(=O)[C@@H]2[C@H]3C[C@H]3CN2C(=O)[C@H](CCc2cc(F)c(C(F)(F)F)c(F)c2)NC(=O)CN(C)C(=O)[C@H](Cc2ccc(C(F)(F)F)cc2)N2CCCC[C@@H](C2=O)N(C)C(=O)CN(C)C1=O [PP0810] |  | 0.04 |  |  | B (a compound having 3 or more and less than 10 is denoted as B) | B (a compound having 3 or more and less than 10 is denoted as B)
CC[C@H](C)[C@@H]1NC(=O)[C@H](CC(C)C)N(C)C(=O)C[C@@H](C(=O)N2CCOCC2)N(C)C(=O)[C@H](C2CCCC2)N(C)C(=O)C2(CCC2)NC(=O)[C@@H]2C[C@@H](C(F)(F)F)CN2C(=O)[C@H](CCc2cc(F)c(C(F)(F)F)c(F)c2)NC(=O)CN(C)C(=O)[C@H](Cc2ccc(C(F)(F)F)cc2)N2CCCCC[C@@H](C2=O)N(C)C(=O)CN(C)C1=O [PP0818] |  | 1.7 |  |  | B (a compound having 3 or more and less than 10 is denoted as B) | B (a compound having 3 or more and less than 10 is denoted as B)
CCO[C@@H]1C[C@H]2C(=O)NC3(CCC3)C(=O)N(C)[C@@H](CC(F)F)C(=O)N(C)[C@H](C(=O)N3CCOCC3)CC(=O)N(C)[C@@H](CC(C)C)C(=O)N[C@@H]([C@@H](C)CC)C(=O)N(C)CC(=O)N(C)[C@H]3CCCCCN(C3=O)[C@@H](Cc3ccc(C(F)(F)F)cc3)C(=O)N(C)CC(=O)N[C@@H](CCc3cc(F)c(C(F)(F)F)c(F)c3)C(=O)N2C1 [PP0822] |  | 5.7 |  |  | B (a compound having 3 or more and less than 10 is denoted as B) | B (a compound having 3 or more and less than 10 is denoted as B)
CCO[C@@H]1C[C@H]2C(=O)NC3(CCC3)C(=O)N(C)[C@@H](C(C)(C)C)C(=O)N(C)[C@H](C(=O)N3CCOCC3)CC(=O)N(C)[C@@H](CC(C)C)C(=O)N[C@@H]([C@@H](C)CC)C(=O)N(C)CC(=O)N(C)[C@H]3CCCCCN(C3=O)[C@@H](Cc3ccc(C(F)(F)F)cc3)C(=O)N(C)CC(=O)N[C@@H](CCc3cc(F)c(C(F)(F)F)c(F)c3)C(=O)N2C1 [PP0823] |  | 0.82 |  |  | A (a compound having 10 or more and less than 20 is denoted as A) | B (a compound having 3 or more and less than 10 is denoted as B)

Continued, in another order:

Kd [1, 4] [nM] | Kd ([1]; SPR, Single Cycle Kinetics) [nM] | SMILES | NRAS/KRAS (ratio of KD value with respect to NRAS to KD value with respect to KRAS) [2] | HRAS/KRAS (ratio of KD value with respect to HRAS to KD value with respect to KRAS) [3] | NRAS/KRAS (ratio of KD value for NRAS to KD value for KRAS) [2] | HRAS/KRAS (ratio of KD value for HRAS to KD value for KRAS) [3]
 | 0.083 | CCO[C@@H]1C[C@H]2C(=O)NC3(CCC3)C(=O)N(C)[C@@H](C(CC)CC)C(=O)N(C)[C@H](C(=O)N3CCOCC3)CC(=O)N(C)[C@@H](CC(C)C)C(=O)N[C@@H]([C@@H](C)CC)C(=O)N(C)CC(=O)N(C)[C@H]3CCCCN(C3=O)[C@@H](Cc3ccc(C(F)(F)F)cc3)C(=O)N(C)CC(=O)N[C@@H](CCc3cc(F)c(C(F)(F)F)c(F)c3)C(=O)N2C1 [PP0811] |  |  | B (a compound having 3 or more and less than 10 is denoted as B) | B (a compound having 3 or more and less than 10 is denoted as B)
 | 0.4 | CCO[C@@H]1C[C@H]2C(=O)NC3(CCC3)C(=O)N(C)[C@@H](CC(F)F)C(=O)N(C)[C@H](C(=O)N3CCOCC3)CC(=O)N(C)[C@@H](CC(C)C)C(=O)N[C@@H]([C@@H](C)CC)C(=O)N(C)CC(=O)N(C)[C@H]3CCCCN(C3=O)[C@@H](Cc3ccc(C(F)(F)F)cc3)C(=O)N(C)CC(=O)N[C@@H](CCc3cc(F)c(C(F)(F)F)c(F)c3)C(=O)N2C1 [PP0813] |  |  | C (A compound having a KD ratio of 0.1 or more and less than 3 is denoted as C) | B (a compound having 3 or more and less than 10 is denoted as B)
 | 0.039 | CCO[C@@H]1C[C@H]2C(=O)NC3(CCC3)C(=O)N(C)[C@@H](C(C)(C)C)C(=O)N(C)[C@H](C(=O)N3CCOCC3)CC(=O)N(C)[C@@H](CC(C)C)C(=O)N[C@@H]([C@@H](C)CC)C(=O)N(C)CC(=O)N(C)[C@H]3CCCCN(C3=O)[C@@H](Cc3ccc(C(F)(F)F)cc3)C(=O)N(C)CC(=O)N[C@@H](CCc3cc(F)c(C(F)(F)F)c(F)c3)C(=O)N2C1 [PP0814] |  |  | B (a compound having 3 or more and less than 10 is denoted as B) | B (a compound having 3 or more and less than 10 is denoted as B)
